Measurements: patent US10219516B2, “Molecules having pesticidal utility, and intermediates, compositions, and processes, related thereto” (priority 2015, dated 2019)

How the values were obtained:
Type in all cases: in vivo
[1] = test system: Cabbage Looper (Trichoplusia ni, TRIPNI); test: Bioassay on Cabbage Looper (CL), 128-well diet tray assay; settings: Trichoplusia ni; Species CL (Cabbage Looper); read-out: CL (Biological Results, rating)
How it was run: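 Mortality of second instar larvae exposed to diet coated with 50 μg/cm^2 compound (acetone-water 90:10 vehicle, dried); 25° C., 5–7 days.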

[2] = test system: Yellow Fever Mosquito (Aedes aegypti, AEDSAE); test: Bioassay on Yellow Fever Mosquito (YFM), 96-well plate larval assay; settings: Species YFM (Yellow Fever Mosquito)
How it was run: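 Aedes aegypti larvae (about 1 day old) in liver-powder water were added to plates dispensed from DMSO master plates (4000 ppm stock) diluted with 90:10 water/acetone; six replicate plates per master. Lidded plates were held at room temperature for 3 days, then each well was scored for mortality.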

[3] = test system: Beet Armyworm (Spodoptera exigua, LAPHEG); test: Bioassay on Beet Armyworm (BAW), 128-well diet tray assay; settings: Species BAW (Beet Armyworm), read-out: BAW (Biological Results, rating)
How it was run: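 In a 128-well format, eight wells per compound received a surface dose of 50 μg/cm^2 on artificial diet. After drying, each well got one to five second instar larvae, held at 25° C. with 14:10 photoperiod. Mortality percentages after five to seven days were averaged.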

Row | SMILES | pest or weed control at 50 µg/cm2 [1] [%] | YFM (Biological Results, rating) [2] | pest or weed control at 50 µg/cm2 [3] [%]
1 | O=C(Nc1ccc(F)cc1[N+](=O)[O-])c1cc(NC(=O)[C@H]2[C@H](c3cc(Cl)cc(Cl)c3)C2(Cl)Cl)ccc1Cl (relative stereo) [F348, trans-2-Chloro-5-(2,2-dichloro-3-(3,5-dichlorophenyl)cyclopropane-1-carboxamido)-N-(4-fluoro-2-nitrophenyl)benzamide] | 50 to 100 | A (80-100) | 50 to 100
2 | C=Cc1cc([C@H]2[C@H](C(=O)Nc3ccc(Cl)c(C(=O)Nc4ccc(F)cc4)c3)C2(Cl)Cl)ccc1Cl (relative stereo) [F349, 2-Chloro-5-(trans-2,2-dichloro-3-(4-chloro-3-vinylphenyl)cyclopropane-1-carboxamido)-N-(4-fluorophenyl)benzamide] | 50 to 100 | A (80-100) | 50 to 100
3 | C=Cc1cc(Cl)cc([C@H]2[C@H](C(=O)Nc3ccc(Cl)c(C(=O)Nc4ccc(F)cc4)c3)C2(Cl)Cl)c1 (relative stereo) [F350, 2-Chloro-5-(trans-2,2-dichloro-3-(3-chloro-5-vinylphenyl)cyclopropane-1-carboxamido)-N-(4-fluorophenyl)benzamide] | 50 to 100 | A (80-100) | 50 to 100
4 | C=Cc1cc([C@H]2[C@H](C(=O)Nc3ccc(Cl)c(C(=O)Nc4ccc(F)cc4F)c3)C2(Cl)Cl)ccc1Cl (relative stereo) [F351, 2-Chloro-5-(trans-2,2-dichloro-3-(4-chloro-3-vinylphenyl)cyclopropane-1-carboxamido)-N-(2,4-difluorophenyl)benzamide] | 50 to 100 | A (80-100) | 50 to 100
5 | C=Cc1cc(Cl)cc([C@H]2[C@H](C(=O)Nc3ccc(Cl)c(C(=O)Nc4ccc(F)cc4F)c3)C2(Cl)Cl)c1 (relative stereo) [F352, 2-Chloro-5-(trans-2,2-dichloro-3-(3-chloro-5-vinylphenyl)cyclopropane-1-carboxamido)-N-(2,4-difluorophenyl)benzamide] | 50 to 100 | A (80-100) | 50 to 100
6 | C=Cc1ccc([C@H]2[C@H](C(=O)Nc3ccc(Cl)c(C(=O)Nc4ccc(F)c(N)c4F)c3)C2(Cl)Cl)cc1Cl (relative stereo) [F355, N-(3-Amino-2,4-difluorophenyl)-2-chloro-5-(trans-2,2-dichloro-3-(3-chloro-4-vinylphenyl)cyclopropane-1-carboxamido)benzamide] | 50 to 100 | A (80-100) | 50 to 100
7 | C=Cc1cc(Cl)cc([C@H]2[C@H](C(=O)Nc3ccc(Cl)c(C(=O)Nc4ccc(F)c(N)c4F)c3)C2(Cl)Cl)c1 (relative stereo) [F356, N-(3-Amino-2,4-difluorophenyl)-2-chloro-5-(trans-2,2-dichloro-3-(3-chloro-5-vinylphenyl)cyclopropane-1-carboxamido)benzamide] | 50 to 100 | A (80-100) | 50 to 100
8 | O=C(Nc1ccc(Br)c(F)n1)c1cc(NC(=O)[C@H]2[C@H](c3cc(Cl)cc(Cl)c3)C2(Cl)Cl)ccc1Cl (relative stereo) [F357, N-(5-Bromo-6-fluoropyridin-2-yl)-2-chloro-5-(trans-2,2-dichloro-3-(3,5-dichlorophenyl)cyclopropane-1-carboxamido)benzamide] | 50 to 100 | A (80-100) | 50 to 100
9 | Nc1cc(F)ccc1NC(=O)c1cc(NC(=O)[C@H]2[C@H](c3cc(Cl)cc(Cl)c3)C2(Cl)Cl)ccc1Cl (relative stereo) [F361, trans-N-(2-amino-4-fluorophenyl)-2-chloro-5-(2,2-dichloro-3-(3,5-dichlorophenyl)cyclopropane-1-carboxamido)benzamide] | 50 to 100 | A (80-100) | 50 to 100
